Laboratory results reported in US20250388574A1, “HETEROCYCLIC COMPOUNDS AS TRIGGERING RECEPTOR EXPRESSED ON MYELOID CELLS 2 AGONISTS AND METHODS OF USE” (AMGEN INC., priority 2020, published 2025).

Biological target: hTREM2 (Homo sapiens, UniProt Q9NZC2)
Experiment: Phospho-Syk AlphaScreen/AlphaLISA assay in TREM2 and DAP12 overexpressing HEK293 cells (Example A1)
Type: cell-based
Parameters: expressed in transfected cells
Settings: HEK293 cells; for EC50: read-out: hTREM2 EC50
Procedure: Pharmacological measurements of TREM2 signaling through DAP12 were made with TREM2 and DAP12 overexpressing HEK293 cells stable cell lines that had been single-cell cloned (“TREM2/DAP12-HEK”). The readout of the TREM2 signaling utilized Perkin Elmer AlphaScreen/AlphaLISA technology monitoring the phosphorylation levels of the Syk kinase. TREM2/DAP12-HEK cell lines were cultured in DMEM-F12 (Corning 10-092-CM) supplemented with 1× Penicillin/Streptomycin (Corning 30-002-CI), 1× GlutaMAX (Gibco 35050-061), and 10% Fetal Bovine Serum (Life Technologies 10099) referred to as “HEK Culture Medium”. Suspensions of TREM2/DAP12-HEK cells were prepared in HEK Culture Medium and dispensed into 384-well poly-D-lysine coated microplates (Corning 354661) at a density of 20,000 cells/well using a Multidrop Combi peristaltic microplate dispenser (Thermo), 25 uL volume of cell suspension/well. Plates containing cells were then incubated for 20 hours in a humidified cell culture incubator at 37° C. with 5% CO2 (Thermo). […] Assay Buffer contained diluted test articles (in 1% final DMSO concentration for compounds) or 100 nM anti-human/mouse TREM2 antibody (R&D Systems MAB17291) as a positive control, 100 nM or rat IgG2B isotype Ab as a negative control (R&D Systems MAB0061). Incubated the plates with test articles and controls for 45 minutes at room temperature and then aspirated/removed the medium from each well of the plates. Used a Multidrop Combi peristaltic liquid handler (Thermo) to dispense 15 uL/well of “Cell Lysis Immunoassay Buffer”. The Cell Lysis Immunoassay Buffer contained M-PER Mammalian Protein Extraction Reagent (Pierce/ThermoFisher 78505), 1× Halt Phosphatase Inhibitor Cocktail (ThermoFisher #78427), 0.1875 nM anti-phospho-Syk ([…]/526) ([…]) rabbit mAb (Cell Signaling Technologies catalog #2710), and 1.5 nM biotinylated Mouse anti-human Syk (4D10) antibody (BD Biosciences, catalog #624008). Incubated plates for 1 hour at room temperature after the addition of the Cell Lysis Immunoassay Buffer. Used the Multidrop Combi liquid handler to dispense 15 μL of AlphaScreen Acceptor Bead Solution containing 7.5 μg/mL anti-rabbit IgG (Fc specific) AlphaLISA Acceptor Beads (Perkin Elmer A[…]) in 1× Immunoassay buffer (Perkin Elmer A[…]) to each well of the microplates. Incubated plates for 2 hours at room temperature. Following the incubation with the AlphaLISA Acceptor Bead Solution, used a Multidrop Combi liquid handler (Thermo) to dispense 15 μL of AlphaScreen Donor Bead Solution containing 30 μg/mL of AlphaScreen Streptavidin Donor beads (Perkin Elmer 6760002B) in 1× Immunoassay buffer (Perkin Elmer A[…]) to each well of the microplates. Incubated microplates for 2 hours protected from light sources as the AlphaScreen reagents are light sensitive. Once the final incubation was completed, acquired AlphaScreen signal from the donor and acceptor beads using an Envision high throughput multi-modal microplate reader (Perkin Elmer) calibrated to the plate type with the AlphaScreen mirror and filter-set in 384-well mode, 680 nanometer excitation wavelength. The total measurement time per well was 550 milliseconds with a 180 millisecond excitation time. After reading the AlphaScreen signal for each well of the microplates, on a plate-by-plate basis, each raw test article well value (x) was normalized to a Percent of Control (“POC”) value using the following formula: […] Each plate contained 12 of each type of control wells that were used to generate the mean values. For concentration response curve analysis with test articles tested at various concentrations, the % of activation values were analyzed with 4 Parameter Logistic or Sigmoidal Dose-Response Models using GeneData Screener (GeneData, AG) or GraphPad Prism 7 (Graphpad Software, Inc.). […] This assay may be used to test any of the compounds described herein to assess and characterize a compound's ability to act as an agonist of TREM2.

hTREM2, sequence (Q9NZC2 19-230): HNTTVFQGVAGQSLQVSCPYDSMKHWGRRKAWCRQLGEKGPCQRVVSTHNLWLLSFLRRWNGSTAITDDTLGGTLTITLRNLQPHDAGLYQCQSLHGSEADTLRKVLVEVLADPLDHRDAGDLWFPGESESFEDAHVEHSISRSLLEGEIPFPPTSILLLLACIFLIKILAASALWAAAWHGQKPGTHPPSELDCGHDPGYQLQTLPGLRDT
hTREM2, sequence (O43914 22-113 partner): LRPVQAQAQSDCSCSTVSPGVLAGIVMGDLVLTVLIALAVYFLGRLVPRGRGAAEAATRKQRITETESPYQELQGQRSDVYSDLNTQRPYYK

| SMILES | Emax | EC50 |
| --- | --- | --- |
| CCCn1c(C)nc2cc(N3CCO[C@H](CC)C3)nc(-c3ccc(Cl)cc3F)c2c1=O [Example 187, (R)-5-(4-chloro-2-fluorophenyl)-7-(2-ethylmorpholino)-2-methyl-3-propylpyrido[4,3-d]pyrimidin-4(3H)-one] | ++++ (Emax>300) | 0.5 to 3 µM |
| Cc1nc2cc(N3CCO[C@@H](c4cnn(C)c4)C3)nc(C3CCCC3)c2c(=O)n1C [Example 160, 5-cyclopentyl-2,3-dimethyl-7-((2S)-2-(1-methyl-1H-pyrazol-4-yl)-4-morpholinyl)pyrido[4,3-d]pyrimidin-4(3H)-one] | +++ (Emax>200 and ≤300) | 0.5 to 3 µM |
| CCCn1c(C)nc2cc(N3CCO[C@H](CF)C3)nc(-c3ccc(Cl)cc3F)c2c1=O [Example 193, (S)-5-(4-chloro-2-fluorophenyl)-7-(2-(fluoromethyl)morpholino)-2-methyl-3-propylpyrido[4,3-d]pyrimidin-4(3H)-one] | +++ (Emax>200 and ≤300) | 0.5 to 3 µM |
| CCCn1c(C)nc2cc(N3CCO[C@H](c4ccnn4C)C3)nc(-c3ccc(Cl)cc3F)c2c1=O [Example 154, 5-(4-chloro-2-fluorophenyl)-2-methyl-7-((2S)-2-(1-methyl-1H-pyrazol-5-yl)-4-morpholinyl)-3-propylpyrido[4,3-d]pyrimidin-4(3H)-one] | ++++ (Emax>300) | 3 to 100 µM |
| Cc1nc2cc(N3CCC(C(F)F)C3)nc(-c3ccc(Cl)cc3F)c2c(=O)n1C (stereo not drawn) [Example 120, 5-(4-chloro-2-fluorophenyl)-7-(3-(difluoromethyl)-1-pyrrolidin-yl)-2,3-dimethylpyrido[4,3-d]pyrimidin-4(3H)-one] | +++ (Emax>200 and ≤300) | 0.05 to 0.5 µM |
| Cc1nc2cc(N3CCC(C(F)(F)F)C3)nc(-c3ccc(Cl)cc3F)c2c(=O)n1C (stereo not drawn) [Example 119, 5-(4-chloro-2-fluorophenyl)-2,3-dimethyl-7-(3-(trifluoromethyl)-1-pyrrolidinyl)pyrido[4,3-d]pyrimidin-4(3H)-one] | +++ (Emax>200 and ≤300) | 0.05 to 0.5 µM |
| Cc1nc2cc(N3CCCC(C)(c4ccccc4)C3)nc(-c3ccc(Cl)cc3F)c2c(=O)n1C (stereo not drawn) [Example 103, 5-(4-chloro-2-fluorophenyl)-2,3-dimethyl-7-(3-methyl-3-phenyl-1-piperidinyl)pyrido[4,3-d]pyrimidin-4(3H)-one] | + (Emax>45 and ≤100) | 3 to 100 µM |
| Cc1nc2cc(N3C[C@@H](C4CC4)O[C@@H](C)C3)nc(-c3ccc(Cl)cc3F)c2c(=O)n1C (single isomer, unassigned) [Example 37] | ++++ (Emax>300) | 0.05 to 0.5 µM |
| Cc1nc2cc(N3CCO[C@@H]([C@H]4CCOC4)C3)nc(-c3ccc(Cl)cc3F)c2c(=O)n1C (single isomer, unassigned) [Example 42] | ++++ (Emax>300) | 0.05 to 0.5 µM |
| Cc1nc2cc(N3CC[C@H](c4ccncc4)C3)nc(-c3ccc(Cl)cc3F)c2c(=O)n1C [Example 254, (R)-5-(4-chloro-2-fluorophenyl)-2,3-dimethyl-7-(3-(pyridin-4-yl)pyrrolidin-1-yl)pyrido[4,3-d]pyrimidin-4(3H)-one] | ++++ (Emax>300) | 3 to 100 µM |
| Cc1nc2cc(N3CCC[C@@H](N(C)C)C3)nc(-c3ccc(Cl)cc3F)c2c(=O)n1C [Example 244, (R)-5-(4-chloro-2-fluorophenyl)-7-(3-(dimethylamino)piperidin-1-yl)-2,3-dimethylpyrido[4,3-d]pyrimidin-4(3H)-one] | +++ (Emax>200 and ≤300) | 3 to 100 µM |

Second part, the compound after the results:

| Emax | EC50 | SMILES |
| --- | --- | --- |
| ++++ (Emax>300) | 0.05 to 0.5 µM | Cc1nc2cc(N3CCO[C@@H](c4ccnc(Cl)c4)C3)nc(-c3ccc(Cl)cc3F)c2c(=O)n1C (single isomer, unassigned) [Example 89] |
| +++ (Emax>200 and ≤300) | 0.05 to 0.5 µM | Cc1nn(C)cc1C1CN(c2cc3nc(C)n(C)c(=O)c3c(-c3ccc(Cl)cc3F)n2)CCO1 (stereo not drawn) [Example 68, 5-(4-chloro-2-fluorophenyl)-7-(2-(1,3-dimethyl-1H-pyrazol-4-yl)-4-morpholinyl)-2,3-dimethylpyrido[4,3-d]pyrimidin-4(3H)-one] |
| ++++ (Emax>300) | < 0.05 µM | Cc1nc2cc(N3CCO[C@@H](c4cn[nH]c4)C3)nc(-c3ccc(Cl)cc3F)c2c(=O)n1C [Example 22, 5-(4-chloro-2-fluorophenyl)-2,3-dimethyl-7-((2S)-2-(1H-pyrazol-4-yl)-4-morpholinyl)pyrido[4,3-d]pyrimidin-4(3H)-one] |
| +++ (Emax>200 and ≤300) | 0.05 to 0.5 µM | Cc1nc2cc(N3CCOC(c4cncnc4)C3)nc(-c3ccc(Cl)cc3F)c2c(=O)n1C (stereo not drawn) [Example 51, 5-(4-chloro-2-fluorophenyl)-2,3-dimethyl-7-(2-(5-pyrimidinyl)-4-morpholinyl)pyrido[4,3-d]pyrimidin-4(3H)-one] |
| ++++ (Emax>300) | < 0.05 µM | Cc1nc2cc(N3CCO[C@@H](c4cnn(C5CC5)c4)C3)nc(-c3ccc(Cl)cc3F)c2c(=O)n1C [Example 136, 5-(4-chloro-2-fluorophenyl)-7-((2S)-2-(1-cyclopropyl-1H-pyrazol-4-yl)-4-morpholinyl)-2,3-dimethylpyrido[4,3-d]pyrimidin-4(3H)-one] |
| +++ (Emax>200 and ≤300) | 0.5 to 3 µM | Cc1nc2cc(N3CCO[C@@H]([C@@H]4CCO4)C3)nc(-c3ccc(Cl)cc3F)c2c(=O)n1C (single isomer, unassigned) [Example 39] |
| +++ (Emax>200 and ≤300) | 0.5 to 3 µM | Cc1nc2cc(N3CCO[C@H]([C@@H]4CCO4)C3)nc(-c3ccc(Cl)cc3F)c2c(=O)n1C (single isomer, unassigned) [Example 40] |
| ++++ (Emax>300) | < 0.05 µM | Cc1cc([C@H]2CN(c3cc4nc(C)n(C)c(=O)c4c(-c4ccc(Cl)cc4F)n3)CCO2)cc(C)n1 (single isomer, unassigned) [Example 77] |
| ++++ (Emax>300) | 0.05 to 0.5 µM | Cc1nc2cc(N3CCO[C@@H](c4cccnc4)C3)nc(-c3ccc(Cl)cc3F)c2c(=O)n1C (single isomer, unassigned) [Example 46] |
| +++ (Emax>200 and ≤300) | < 0.05 µM | Cc1cc([C@H]2CN(c3cc4nc(C)n(C)c(=O)c4c(-c4ccc(Cl)cc4F)n3)CCO2)ccn1 [Example 61, 5-(4-chloro-2-fluorophenyl)-2,3-dimethyl-7-((2S)-2-(2-methyl-4-pyridinyl)-4-morpholinyl)pyrido[4,3-d]pyrimidin-4(3H)-one] |
| ++++ (Emax>300) | 0.05 to 0.5 µM | COCCn1cc([C@H]2CN(c3cc4nc(C)n(C)c(=O)c4c(-c4ccc(Cl)cc4F)n3)CCO2)cn1 [Example 127, 5-(4-chloro-2-fluorophenyl)-7-((2S)-2-(1-(2-methoxyethyl)-1H-pyrazol-4-yl)-4-morpholinyl)-2,3-dimethylpyrido[4,3-d]pyrimidin-4(3H)-one] |
| ++++ (Emax>300) | < 0.05 µM | Cc1nc2cc(N3CCO[C@@H](c4cnn(C5CCC5)c4)C3)nc(-c3ccc(Cl)cc3F)c2c(=O)n1C [Example 124, 5-(4-chloro-2-fluorophenyl)-7-((2S)-2-(1-cyclobutyl-1H-pyrazol-4-yl)-4-morpholinyl)-2,3-dimethylpyrido[4,3-d]pyrimidin-4(3H)-one] |
| +++ (Emax>200 and ≤300) | < 0.05 µM | Cc1nc2cc(N3CCO[C@@H](c4cnn(C5CC(F)(F)C5)c4)C3)nc(-c3ccc(Cl)cc3F)c2c(=O)n1C [Example 131, 5-(4-chloro-2-fluorophenyl)-7-((2S)-2-(1-(3,3-difluorocyclobutyl)-1H-pyrazol-4-yl)-4-morpholinyl)-2,3-dimethylpyrido[4,3-d]pyrimidin-4(3H)-one] |
